Laboratory results as given in patent US12544431B2, “Peptides for the treatment of cancer and/or metastasis” (BCN PEPTIDES, S.A., priority 2019, dated 2026).
Entries after “also recorded” stand apart in the source; their conditions may differ. Marks after values point to notes of the source that are not given here. Where a SMILES comes first, the peptide text is derived from it. [ ]: non-standard residue; d: D form. Phe(2,4,6-Me3) = Cc1cc(C)c(C[C@H](N)C(=O)O)c(C)c1; pGlu = O=C1CC[C@@H](C(=O)O)N1

How the values were obtained:
[1] = test system: CHLA-90 neuroblastoma cells; test: Transwell invasion assay, CHLA-90 cells; format: cell-based
Protocol: (§1) 10^5 RH30 or RD cells were plated in the upper chamber of a Matrigel-coated transwell (Corning) in 0.1 mL medium without FBS. Cells were previously incubated with different concentrations (0 nM, 100 nM, 200 nM, 500 nM and 1000 nM) of the peptides and peptide dimer for 48 hours, being also present in the medium during the cell invasion assay. In the lower chamber, 0.6 mL of medium with FBS was added. Cells were incubated at 37° ° C. for 24 hours.
(§2) After that, cells were fixed with 4% paraformaldehyde (Sigma) for 10 minutes, followed by washing with PBS. After removal of the Matrigel and remaining cells from the upper face of the membrane with a cotton swab, the cells present on the lower face were stained with a Hoechst dilution (Sigma) and were counted (5 fields for each well) with an inverted fluorescence microscope Nikon with a 10× objective. All experiments were made in triplicate. In Table 6 the % Invasiveness represents the mean percentage of invasive cells with respect to their controls.
(§3) The transwell assay with CHLA-90 and BE(2)-C cell lines was done following the same conditions detailed for determining the % of invasiveness in rhabdomyosarcoma cells.
(§4) The transwell assay with neuroblastoma cell lines (CHLA-90, BE(2)-C and SK—N-BE(2)-C)) and breast cancer cell lines (MDA-MB-231 and MDA-MB-468) was performed at the same conditions detailed for determining the % of invasiveness in rhabdomyosarcoma cells.

[2] = test system: RD rhabdomyosarcoma cells; test: Matrigel-coated transwell invasion assay, RD cells; format: cell-based; conditions: % invasive cells vs non-treated control
Protocol: as §1, §2

[3] = test system: BE(2)-C neuroblastoma cells; test: Transwell invasion assay, BE(2)-C cells; format: cell-based
Protocol: as §1, §2, §3, §4

[4] = In vitro stability, half-life in human plasma; format: in vitro ADME; conditions: 90% human plasma, 37° C., RP-HPLC; read-out: t½ (hours) in human plasma (converted)
Protocol: The peptides and peptide dimer synthesized and prepared in accordance with Example 1 were dissolved in water at a concentration of 6 mg/mL and warmed up to 37° C.
Human plasma was obtained as a lyophilized solid (K3 EDTA Plasma, BBI Solutions, code S112-1), reconstituted with sterile 0.9% sodium chloride solution and stored at −20° C. Human plasma was thawed and incubated at 37° C. before use.
The peptides and peptide dimer were incubated in 90% human plasma at 37° C. for different times and then precipitated with two volume equivalents of methanol. The samples were cooled in an acetone-carbon dioxide bath for a few seconds and centrifuged for 12 minutes at 4° C. at approximately 10,000 rpm. The supernatant was filtered with a 0.45 μm PVDF filter and analyzed in triplicate by RP-HPLC using an isocratic method (Eluent A=0.1% TFA in water; Eluent B=0.07% TFA in ACN, Column=Kromasil C8, 100 Å, 5 μm, 250×4.6 mm, Flow=1 mL/min, Wavelength: 220 nm, Injection volume=20 μL, Temperature=60° C.). The disappearance of the compound was determined in relation to the area of the initial time to calculate its half-life.

[5] = test system: MDA-MB-468 breast cancer cells; test: Transwell invasion assay, MDA-MB-468 cells; format: cell-based
Protocol: as §1, §2, §4

[6] = test system: BE(2)-C neuroblastoma cells; test: Neuroblastoma metastatic mice model (BE(2)-C cells i.v. in tail vein); format: in vivo, SCID/Beige mice; conditions: for Absence of metastases, number of mice / Absence of metastases, percentage of mice / Presence of metastases (%), percentage of mice / Presence of metastases, number of mice: 13 weeks; for event-free survival, percentage of mice / event-free survival, number of mice: 13-week study; for event-free survival, number of mice: of 9 mice
Protocol: SCID/Beige female mice aged 5 weeks were administered subcutaneously (s.c.) at day −1 with the first dose of treatment, this is the vehicle (PBS) or the peptide SEQ ID NO: 7-NH2 at doses of 1 mg/kg and 2 mg/kg. On day 0, mice were injected intravenously (i.v.) in the tail vein with 2×10^5 BE(2)-C neuroblastoma cells. Afterwards, mice were treated s.c. three times per week (every 2-3 days) for 13 weeks with vehicle PBS (n=8) and SEQ ID NO: 7—NH2 1 mg/kg (n=9) and 2 mg/kg (n=9).

[7] = test system: RH30 rhabdomyosarcoma cells; test: Matrigel-coated transwell invasion assay, RH30 cells; format: cell-based; conditions: for % Invasiveness RH30: % invasive cells vs non-treated control
Protocol: as §1, §2

[8] = test system: SK-N-BE(2)-C neuroblastoma cells; test: Transwell invasion assay, SK-N-BE(2)-C cells; format: cell-based
Protocol: as §1, §2, §4

[9] = test system: RD rhabdomyosarcoma cells; test: Rhabdomyosarcoma metastatic mice model (RD cells i.v. in tail vein); format: in vivo, SCID/Beige mice; conditions: for event-free survival vs vehicle group (in words): 27-week study; for Absence of metastases, number of mice / Absence of metastases, percentage of mice / Presence of metastases (%), percentage of mice / Presence of metastases, number of mice: 27 weeks; for body weight, treated vs vehicle-treated mice (in words): along the 27-week study
Protocol: SCID/Beige female mice aged of 5 weeks were administered subcutaneously (s.c.) at day −1 with the first dose of treatment i.e. the vehicle (PBS, Phosphate buffered saline) or the peptides. On day 0, mice were injected intravenously (i.v.) in the tail vein with 2×10^6 RD rhabdomyosarcoma cells.
Body weight was evaluated twice per week for 27 weeks. Overall survival and event-free survival were determined. At necropsy, the total number of metastases were quantified and the number of metastases per mice and their localization were also reported.

[10] = test system: MDA-MB-231 breast cancer cells; test: Transwell invasion assay, MDA-MB-231 cells; format: cell-based
Protocol: as §1, §2, §4

[11] = 1 mg/kg s.c. three times per week
[12] = 2 mg/kg s.c. three times per week
[13] = 0.5 mg/kg s.c. three times per week

In the case of CSCC[C@H](NC(=O)[C@H](CO)NC(=O)[C@H](CC(N)=O)NC(=O)[C@H](CO)NC(=O)[C@H](CO)NC(=O)[C@H](CC(=O)O)NC(=O)[C@H](CCCNC(=N)N)NC(=O)[C@H](CCCCN)NC(=O)[C@@H]1CCC(=O)N1)C(=O)N[C@@H](CC(=O)O)C(=O)N[C@@H](CC(C)C)C(=O)N1CCC[C@H]1C(=O)N[C@@H](CCC(=O)O)C(=O)N[C@@H](Cc1c(C)cc(C)cc1C)C(=O)N[C@@H](CCCCN)C(N)=O [SEQ ID NO: 7-NH2, Pyr-Lys-Arg-Asp-Ser-Ser-Asn-Ser-Met-Asp-Leu-Pro-Glu-Msa-Lys-NH2] ([pGlu]KRDSSNSMDLPE[Phe(2,4,6-Me3)]K-NH2), the “% Invasiveness CHLA-90” value ([1]; 100 nM peptide) is reported as 94.31%, the “% Invasiveness CHLA-90” value ([1]; 200 nM peptide) is reported as 52.37% and the “% Invasiveness CHLA-90” value ([1]; 500 nM peptide) is reported as 38.94%. For the same compound, the “% Invasiveness CHLA-90” value ([1]; 1000 nM peptide) was 20.37* %, the “effect on CHLA-90 cell invasiveness (in words)” value ([1]; concentration not given) was “significant reduction in cell invasiveness” and the “% Invasiveness RD” value ([2]; 100 nM peptide) was 30.82* %. For the same compound, the “% Invasiveness RD” value ([2]; 100 nM peptide, listed as SEQ ID NO: 7—NH2) was “below 50%”, the “% Invasiveness RD” value ([2]; 200 nM peptide) was 22.94* % and the “% Invasiveness RD” value ([2]; 500 nM peptide) was 17.60* %. For the same compound, the “% Invasiveness RD” value ([2]; 1000 nM peptide) was 19.68* %, the “% Invasiveness BE(2)-C” value ([3]; 100 nM peptide) was 95.15% and the “% Invasiveness BE(2)-C” value ([3]; 200 nM peptide) was 60.70* %. For the same compound, the “% Invasiveness BE(2)-C” value ([3]; 500 nM peptide) was 56.72* %, the “% Invasiveness BE(2)-C” value ([3]; 1000 nM peptide) was 33.21* % and the “effect on BE(2)-C cell invasiveness (in words)” value ([3]; concentration not given) was “significant reduction in cell invasiveness”. For the same compound, the half-life at 0.6 mg/mL [4] was 40.5 h, the “% Invasiveness MDA-MB-468” value ([5]; 100 nM peptide) was 96.71% and the “% Invasiveness MDA-MB-468” value ([5]; 200 nM peptide) was 57.65%. For the same compound, the “% Invasiveness MDA-MB-468” value ([5]; 500 nM peptide) was 54.53* %, the “% Invasiveness MDA-MB-468” value ([5]; 1000 nM peptide) was 48.39* % and the “effect on MDA-MB-468 invasiveness (in words)” value ([5]; under treatment, concentration not given) was “clear reduction of invasiveness”. The “Absence of metastases, number of mice” value [6, 11] was 2, the “Absence of metastases, percentage of mice” value (“Absence … percentage of mice” below) [6, 11] was 22% and the “Presence of metastases (%), percentage of mice” value [6, 11] was 78%. For the same compound, the “Presence of metastases, number of mice” value [6, 11] was 7, the “event-free survival, percentage of mice” value ([6]; 1 mg/kg) was 22% and the “event-free survival, number of mice” value ([6]; 1 mg/kg) was 2. For the same compound, the “Absence of metastases, number of mice” value [6, 12] was 5, the “Absence … percentage of mice” value [6, 12] was 56% and the “Presence of metastases (%), percentage of mice” value [6, 12] was 44%. For the same compound, the “Presence of metastases, number of mice” value [6, 12] was 4, the “event-free survival, percentage of mice” value ([6]; 2 mg/kg) was 56% and the “event-free survival, number of mice” value ([6]; 2 mg/kg) was 5. For the same compound, the “% Invasiveness RH30” value ([7]; 100 nM peptide) was 121.38%, the “% Invasiveness RH30” value ([7]; 200 nM peptide) was 77.38% and the “% Invasiveness RH30” value ([7]; 500 nM peptide) was 65.59%. For the same compound, the “% Invasiveness RH30” value ([7]; 1000 nM peptide) was 63.23%, the “effect on % invasiveness of RH30 cell line (in words)” value ([7]; concentration not stated (100-1000 nM tested)) was “diminishing % invasiveness without reaching significance” and the “% Invasiveness SK-N-BE(2)-C” value ([8]; 100 nM peptide) was 84.35%. The “% Invasiveness SK-N-BE(2)-C” value ([8]; 200 nM peptide) was 91.84%, the “% Invasiveness SK-N-BE(2)-C” value ([8]; 500 nM peptide) was 73.31* % and the “% Invasiveness SK-N-BE(2)-C” value ([8]; 500 nM peptide, listed as SEQ ID NO: 7—NH2) was “efficacious in inhibiting invasiveness; also recorded: significant reduction”. The “% Invasiveness SK-N-BE(2)-C” value ([8]; 1000 nM peptide) was 52.70* %, the “event-free survival vs vehicle group (in words)” value ([9]; 0.5 mg/kg (lower dose)) was “did not show statistically significant difference; also recorded: did not show a significant effect” and the “Absence of metastases, number of mice” value [9, 13] was 1. The “Absence … percentage of mice” value [9, 13] was 17%, the “Presence of metastases (%), percentage of mice” value [9, 13] was 83% and the “Presence of metastases, number of mice” value [9, 13] was 5. For the same compound, the “body weight, treated vs vehicle-treated mice (in words)” value ([9]; 0.5 mg/kg) was “vehicle-treated mice showed a statistically significant lower body weight”, the “reduction in metastases formation” value ([9]; 0.5 mg/kg, vs PBS-treated mice) was roughly 15% and the “number of metastases per mouse vs vehicle (in words)” value ([9]; 2 mg/kg (higher dose), at necropsy) was “statistically reduced the formation of metastases per mouse; also recorded: efficacious in the reduction of the number of metastases”. For the same compound, the “Absence of metastases, number of mice” value [9, 12] was 5, the “Absence … percentage of mice” value [9, 12] was 71% and the “Presence of metastases (%), percentage of mice” value [9, 12] was 29%. The “Presence of metastases, number of mice” value [9, 12] was 2, the “event-free survival vs vehicle group (in words)” value ([9]; 2 mg/kg, Log-rank) was “significant difference” and the “body weight, treated vs vehicle-treated mice (in words)” value ([9]; 2 mg/kg) was “vehicle-treated mice showed a statistically significant lower body weight”. The “% Invasiveness MDA-MB-231” value ([10]; 100 nM peptide) was 111.82%, the “% Invasiveness MDA-MB-231” value ([10]; 200 nM peptide) was 109.71% and the “% Invasiveness MDA-MB-231” value ([10]; 500 nM peptide) was 99.97%. The “% Invasiveness MDA-MB-231” value ([10]; 1000 nM peptide (highest treatment dose)) was 53.69% and the “% Invasiveness MDA-MB-231” value ([10]; 1000 nM peptide (highest treatment dose), listed as SEQ ID NO: 7—NH2) was “moderate reduction”.
